Assay results published in paper PMC12873548, “D-amino acid substitution and cyclization enhance the stability and antimicrobial activity of arginine-rich peptides” (Microbiology, 2026).
Values after ≈ are worked out from the molar mass of the structure shown. Non-standard residues stand in square brackets, D forms with d. Residues, ends and D or L forms follow the SMILES beside them. *: point of attachment. NHhexadecyl = CCCCCCCCCCCCCCCCN*

Tests used:
[1] = Stability in human serum by LC-MS; format: in vitro ADME; conditions: human serum (20% and 50%), 24 h, 37 °C; read-out LC-MS (ESI)
Description: (§1) The antimicrobial activity and structural stability of arginine-rich peptides were evaluated in the presence of human serum (20% and 50 %) and 5 µM Sequencing Grade Modified Trypsin (SGMT, Promega). Briefly, fresh human blood was collected in EDTA tubes and allowed to clot at room temperature for 1 h. Serum was then collected following centrifugation at 2,000 r.p.m. for 10 min at 4 °C. Peptides were incubated with 20%, 50% human serum and 5 µM SGMT in 50 mM Tris-HCl buffer (1 mM CaCl₂, pH 7.6) for 24 h at 37 °C. After the incubation period, the solutions were further incubated with E. coli (ATCC 25922 and O157:H7), P. aeruginosa (PA01, NCTC13437) and S. aureus (ATCC12600), and the MIC was assessed as described in the ‘Antibacterial assessment’ section. Additionally, the samples were analysed using electrospray ionization MS to monitor structural changes based on the molecular weight of the peptides.

[2] = biological target: T1, Sequencing Grade Modified Trypsin (Sus scrofa, UniProt P00761); test: Stability with trypsin by LC-MS; format: in vitro ADME; conditions: 5 µM SGMT trypsin, 50 mM Tris-HCl, 1 mM CaCl2, pH 7.6, 24 h, 37 °C; read-out LC-MS (ESI)
T1 construct: purchased Promega
T1 sequence (P00761 9-231): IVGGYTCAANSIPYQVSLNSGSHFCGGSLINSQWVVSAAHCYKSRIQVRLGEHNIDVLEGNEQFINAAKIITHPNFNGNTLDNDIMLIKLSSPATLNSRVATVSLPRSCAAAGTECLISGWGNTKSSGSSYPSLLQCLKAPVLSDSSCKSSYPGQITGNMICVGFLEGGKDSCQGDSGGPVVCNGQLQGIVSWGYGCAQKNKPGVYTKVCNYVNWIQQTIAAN
Description: as §1

[3] = test system: S. aureus (ATCC12600); format: cell-based, Staphylococcus aureus
Description: The MIC of arginine-based peptides was assessed using the microbroth dilution approach. Our in vitro screening included a panel of Gram-negative bacteria, Escherichia coli (ATCC 25922 and enterohaemorrhagic O157:H7) and Pseudomonas aeruginosa (PA01 and the drug-resistant strain NCTC 13437), and Gram-positive bacteria (Staphylococcus aureus ATCC 12600). Five-millilitre overnight cultures in Lysogeny broth, prepared from single isolated colonies, were diluted to 5×10^6 c.f.u. ml^−1 mid-log phase in Mueller–Hinton (MH) broth. Next, peptide concentrations (0 to 1 mM) were serially diluted twofold in 96-well plates and incubated overnight at 37 °C with the tested bacterial strains. In each case, the MIC was determined as the lowest peptide concentration at which no detectable bacterial growth was observed, employing an absorbance-based assay using a Tecan Spark® multimode plate reader. Subsequently, 10 µl aliquots from each peptide dilution were transferred to MH agar (1.5%) plates to determine the minimum bactericidal concentration (MBC) which was assessed by establishing at which concentration no visible growth of bacteria (assessed via colony formation) on the plate was observed.

[4] = test system: S. aureus ATCC 12600; test: Membrane integrity, PI uptake; format: cell-based, Staphylococcus aureus; conditions: S. aureus ATCC 12600, 5 µg ml−1 PI, 1 h
Description: (§2) Propidium iodide (PI) uptake was used to assess the permeabilization of the bacterial membrane upon incubation with peptides. E. coli and S. aureus cells, adjusted to an OD600 of 0.5, were placed into a 96-well plate containing 5 mM HEPES buffer (pH 7.4, supplemented with 5 mM glucose) and incubated with 5 µg ml^−1 PI for 15 min. Afterwards, different peptide concentrations were added, and PI uptake was rapidly measured every 10 min over a 1 h period using a Tecan Spark® microplate reader (λex=515 nm, λem=620 nm).

[5] = test system: E. coli ATCC 25922; test: Membrane integrity, PI uptake; format: cell-based, Escherichia coli; conditions: E. coli ATCC 25922, 5 µg ml−1 PI, 1 h
Description: as §2

[6] = test system: E. coli ATCC 25922; test: Cytoplasmic membrane depolarization, DiSC3(5); format: cell-based, Escherichia coli; conditions: peptide at 2× MIC or 1,000 µM, positive control Triton X-100
Description: The dye 3,3′-dipropylthiadicarbocyanine iodide DiSC3(5) was employed to evaluate perturbation of the bacterial membrane by our designed arginine-rich peptides. For this, a black 96-well microtiter plate containing 150 µl E. coli cells (OD600=0.5) in MH broth per well was incubated with 0.5 µM DiSC3(5) in 5 mM HEPES buffer (pH 7.4, supplemented with 5 mM glucose and 0.1 M KCl) for 15 min to allow for fluorescence quenching. Then, 2× MIC or 1 mM peptide was added, and changes in fluorescence were monitored in real-time (λex=622 nm, λem=670 nm) using a microplate reader.

[7] = test system: E. coli; test: Intracellular ROS, DCFH-DA; format: cell-based, Escherichia coli; conditions: peptides at MIC, 1/2× MIC, 1/4× MIC, 4 h, 37 °C
Description: (§3) Total reactive oxygen species (ROS) was measured using an oxidation-sensitive fluorescent dye, 2′,7′-dichlorodihydrofluorescein diacetate (DCFH-DA). For this assay, E. coli and S. aureus cultures were adjusted to an OD600 of 0.3 in MH broth and exposed to peptides at MIC, 1/2× MIC and 1/4× MIC, or to positive control (5 mM H2O2) for 4 h at 37 °C. Cells were centrifuged at 4,000 r.p.m. for 10 min at 4 °C and resuspended in PBS containing 10 µM DCFH-DA. The suspension was incubated under the same conditions for 30 min. Finally, cells were washed twice with PBS, and 150 µl aliquots were transferred to 96-well plates. Oxidized DCF products were detected using a Tecan Spark® microplate reader with excitation at 485 nm and emission at 530 nm. Additionally, 10 µl of E. coli cells incubated with D-R4F4 at MIC, 1/2×MIC and 1/4×MIC was collected for imaging using an All-in-One Fluorescence Microscope (Keyence, Japan).

[8] = test system: S. aureus; test: Intracellular ROS, DCFH-DA; format: cell-based, Staphylococcus aureus; conditions: peptides at MIC, 1/2× MIC, 1/4× MIC, 4 h, 37 °C
Description: as §3

SMILES	Stability with serum proteases (LC chromatogram and mass spectrum) [1]	Stability with trypsin (LC chromatogram and mass spectrum) [2]	MBC ([3]; ATCC12600) [µM]	MIC ([3]; ATCC12600, 24 h) [µM]	PI uptake, membrane integrity [4]	PI uptake, membrane integrity [5]	Cytoplasmic membrane depolarization, DiSC3(5) fluorescence [6]	Intracellular ROS levels [7]	Intracellular ROS levels [8]
N=C(N)NCCC[C@@H](N)C(=O)N[C@@H](CCCNC(=N)N)C(=O)N[C@H](CCCNC(=N)N)C(=O)N[C@@H](CCCNC(=N)N)C(=O)N[C@H](Cc1ccccc1)C(=O)N[C@@H](Cc1ccccc1)C(=O)N[C@H](Cc1ccccc1)C(=O)N[C@@H](Cc1ccccc1)C(=O)O [D-R4F4] (H-[dR]R[dR]R[dF]F[dF]F-OH)	appeared at the same retention time in both the absence and presence of proteases	appeared at the same retention time in both the absence and presence of proteases	250 (≈ 308 µg/mL)	125 (≈ 154 µg/mL)	–	–	–	–	–
CCCCCCCCCCCCCCCCNC(=O)[C@H](CCCNC(=N)N)NC(=O)[C@H](CCCNC(=N)N)NC(=O)[C@H](CCCNC(=N)N)NC(=O)[C@@H](N)CCCNC(=N)N [Peptide R4-C16] (H-RRRR-NHhexadecyl; N-terminus and C-terminus assumed)	–	–	–	–	membrane-disruptive activity	membrane-disruptive activity	significantly higher fluorescence levels compared to the positive control	highest modulation of ROS levels	highest modulation of ROS levels
